Measurements as given in patent US20100056527A1, “BENZOFURAN COMPOUNDS USEFUL IN THE TREATMENT OF CONDITIONS MEDIATED BY THE ACTION OF PGE2 AT THE EP1 RECEPTOR” (Glaxo Group Limited, priority 2007, published 2010).

Molecular target: T1, human EP1 receptor (Homo sapiens, UniProt P34995)
T1 construct: expressed in transfected cells; host or cells: CHO-K1 cells (membrane fraction)
T1 sequence (P34995 1-402): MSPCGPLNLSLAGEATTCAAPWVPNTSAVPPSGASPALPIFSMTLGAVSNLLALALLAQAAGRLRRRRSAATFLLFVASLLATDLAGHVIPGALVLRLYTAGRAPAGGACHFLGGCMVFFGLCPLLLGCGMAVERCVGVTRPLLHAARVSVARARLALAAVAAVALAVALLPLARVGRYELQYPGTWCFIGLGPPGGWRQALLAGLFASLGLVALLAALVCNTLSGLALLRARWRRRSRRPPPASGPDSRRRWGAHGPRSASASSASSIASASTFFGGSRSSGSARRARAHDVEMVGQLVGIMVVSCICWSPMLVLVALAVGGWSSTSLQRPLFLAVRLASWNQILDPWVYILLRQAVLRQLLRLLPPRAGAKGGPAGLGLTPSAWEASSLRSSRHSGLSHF
Assay: human EP1 calcium mobilization assay (FLIPR, PGE2-induced [Ca2+]i)
Assay type: cell-based
Conditions: CHO-K1 cells transfected with EP1 cDNA; antagonism of PGE2; averages of a number of experiments
Protocol: Briefly, the antagonist properties of compounds are assessed by their ability to inhibit the mobilization of intracellular calcium ([Ca^2+]i) in response to activation of EP1 or EP3 receptors by the natural agonist hormone prostaglandin E2 (PGE2). Increasing concentrations of antagonist reduce the amount of calcium that a given concentration of PGE2 can mobilize. The net effect is to displace the PGE2 concentration-effect curve to higher concentrations of PGE2. The amount of calcium produced is assessed using a calcium-sensitive fluorescent dye such as Fluo-4, AM and a suitable instrument such as a Fluorimetric Imaging Plate Reader (FLIPR). Increasing amounts of [Ca^2+]i produced by receptor activation increase the amount of fluorescence produced by the dye and give rise to an increasing signal. The signal may be detected using the FLIPR instrument and the data generated may be analyzed with suitable curve-fitting software.
The human EP1 or EP3 calcium mobilization assay (hereafter referred to as ‘the calcium assay’) utilises Chinese hamster ovary-K1 (CHO—K1) cells into which a stable (PClN; BioTechniques 20 (1996): 102-110) vector containing either EP1 or EP3 cDNA has previously been transfected. Cells are cultured in suitable flasks containing culture medium such as DMEM:F-12 supplemented with 10% v/v foetal calf serum, 2 mM L-glutamine, 0.25 mg/ml geneticin, 100 μM flurbiprofen and 10 μg/ml puromycin.
For assay, cells are harvested using a proprietary reagent that dislodges cells such as Versene. Cells are re-suspended in a suitable quantity of fresh culture media for introduction into a 384-well plate. Following incubation for 24 hours at 37° C. the culture media is replaced with a medium containing Fluo-4 and the detergent pluronic acid, and a further incubation takes place. Concentrations of compounds are then added to the plate in order to construct concentration-effect curves. This may be performed on the FLIPR in order to assess the agonist properties of the compounds. Concentrations of PGE2 are then added to the plate in order to assess the antagonist properties of the compounds.
The data so generated may be analyzed by means of a computerised curve-fitting routine. The concentration of compound that elicits a half-maximal inhibition of the calcium mobilization induced by PGE2 (pIC50) may then be estimated.
The compounds of Examples 1-28 and 30-156 were tested in the human EP1 calcium mobilization assay. The results are expressed as functional pKi values. A functional pKi is the negative logarithms of the antagonist dissociation constant as determined in the human EP1 calcium mobilization assay. The results given are averages of a number of experiments.

SMILES | functional pKi in the human EP1 calcium mobilization assay
CC(C)(C)OC(=O)Nc1ccc(Cc2cc(Cl)cc3cc(-c4ccccc4)oc23)o1 [Example 156, 1,1-Dimethylethyl {5-[(5-chloro-2-phenyl-1-benzofuran-7-yl)methyl]-2-furanyl}carbamate] | did not show activity
Cl.N#Cc1ccc(-c2cc3cc(Cl)cc(Cc4ccc(C(=O)NCC5CCNCC5)o4)c3o2)cc1 [Example 37, 5-{[5-Chloro-2-(4-cyanophenyl)-1-benzofuran-7-yl]methyl}-N-(4-piperidinylmethyl)-2-furancarboxamide hydrochloride] | did not show activity
Cc1cc(C(=O)Nc2ccncc2)nn1Cc1cc(Cl)cc2cc(-c3ccccc3)oc12 [Example 68, 1-[(5-chloro-2-phenyl-1-benzofuran-7-yl)methyl]-5-methyl-N-4-pyridinyl-1H-pyrazole-3-carboxamide] | did not show activity
Cc1cc(C(=O)NC(C)(C)C)nn1Cc1cc(Cl)cc2cc(-c3ccc(F)cc3F)oc12 [Example 112, 1-{[5-chloro-2-(2,4-difluorophenyl)-1-benzofuran-7-yl]methyl}-N-(1,1-dimethylethyl)-5-methyl-1H-pyrazole-3-carboxamide] | did not show activity
